We go through three compounds from ChEMBL document CHEMBL4196110, “Covalent Inhibitors of the TEC Family of Kinases and Their Methods of Use” (ACS Med Chem Lett, 2018).

Each structure is given as a SMILES string. pIC50: −log10 of the molar value.

Tyrosine-protein kinase BTK, sequence (Q06187 whole entry): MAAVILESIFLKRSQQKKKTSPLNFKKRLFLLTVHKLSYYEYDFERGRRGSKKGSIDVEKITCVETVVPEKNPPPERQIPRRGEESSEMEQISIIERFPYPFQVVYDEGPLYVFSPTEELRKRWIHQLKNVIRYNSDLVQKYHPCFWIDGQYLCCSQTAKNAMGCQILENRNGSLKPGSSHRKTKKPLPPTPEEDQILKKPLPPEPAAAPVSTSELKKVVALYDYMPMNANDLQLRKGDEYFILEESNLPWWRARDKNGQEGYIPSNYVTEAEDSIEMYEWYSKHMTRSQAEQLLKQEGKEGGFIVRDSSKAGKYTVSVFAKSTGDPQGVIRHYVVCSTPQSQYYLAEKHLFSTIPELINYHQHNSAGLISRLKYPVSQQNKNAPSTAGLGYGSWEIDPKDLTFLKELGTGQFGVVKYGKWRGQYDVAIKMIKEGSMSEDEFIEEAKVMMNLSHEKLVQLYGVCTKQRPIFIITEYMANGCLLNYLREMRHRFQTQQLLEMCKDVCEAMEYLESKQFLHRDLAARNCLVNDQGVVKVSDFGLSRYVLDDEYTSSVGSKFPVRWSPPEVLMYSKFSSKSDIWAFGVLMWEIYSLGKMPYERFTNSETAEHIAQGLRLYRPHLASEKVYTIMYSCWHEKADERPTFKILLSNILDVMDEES

This test has as its target Tyrosine-protein kinase BTK (Homo sapiens, UniProt Q06187). Nature of the test: Inhibition of BTK (unknown origin) using fluorescently labeled peptide as substrate after 3 hrs by microfluidic mobility shift assay.
The term pIC50 denotes −log10 of the IC50, conventionally taken in molar units. With `C=CC(=O)N1CC[C@]2(C1)C[C@H](n1c(NC(=O)c3ccc(C(F)F)s3)nc3cc(CN[C@@H](C)C(C)(C)C)ccc31)C2`, the pIC50 was 8.36.
As for `C=CC(=O)N1CC[C@]2(C1)C[C@H](n1c(NC(=O)c3ccc(-c4ccnc(N)c4)s3)nc3ccccc31)C2`, the pIC50 is 9.20.
With `C=CC(=O)N1CC[C@]2(C1)C[C@H](n1c(NC(=O)c3ccc(-c4cnco4)s3)nc3cc(NC)ccc31)C2` the figure was 9.21.
